Test results from patent publication US9546153B2, “Bicyclic heterocycle substituted pyridyl compounds useful as kinase modulators” (BRISTOL-MYERS SQUIBB COMPANY, priority 2012, dated 2017).
Like-named read-outs stand apart in the source and are kept apart here.

Experiments:
[1] = system: TLR2 induced IL-6 in peripheral blood mononuclear cells (PBMCs); assay: PBMC TLR2 Induced IL-6 Assay; assay type: cell-based, human; details: human PBMCs, 10 μg/ml lipoteichoic acid for 5 hours, IL-6 by ELISA, value without asterisk, read-out: Cell IC50
Procedure, shortened: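 Human PBMCs (250000 cells/well) in RPMI with 10% heat-inactivated FCS pre-treated with compound for 30 min at 37° C, then stimulated 5 h with 10 μg/ml lipoteichoic acid. Supernatant IL-6 measured by ELISA and reported as IC50 or EC50.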

[2] = target: IRAK4 (Homo sapiens (Human), UniProt Q9NWZ3); assay: IRAK4 Inhibition Assay; assay type: biochemical; details: ATP 500 μM; IRAK4 0.6 nM; 60 min at room temperature
Procedure: The assays were performed in U-bottom 384-well plates. […] The reaction was initiated by the combination of IRAK4 with substrates and test compounds. The reaction was incubated at room temperature for 60 min. and terminated by adding 45 μL of 35 mM EDTA to each sample. The reaction mixture was analyzed on the Caliper LABCHIP® 3000 (Caliper, Hopkinton, Mass.) by electrophoretic separation of the fluorescent substrate and phosphorylated product.

IRAK4, sequence (Q9NWZ3 whole entry, species assumed): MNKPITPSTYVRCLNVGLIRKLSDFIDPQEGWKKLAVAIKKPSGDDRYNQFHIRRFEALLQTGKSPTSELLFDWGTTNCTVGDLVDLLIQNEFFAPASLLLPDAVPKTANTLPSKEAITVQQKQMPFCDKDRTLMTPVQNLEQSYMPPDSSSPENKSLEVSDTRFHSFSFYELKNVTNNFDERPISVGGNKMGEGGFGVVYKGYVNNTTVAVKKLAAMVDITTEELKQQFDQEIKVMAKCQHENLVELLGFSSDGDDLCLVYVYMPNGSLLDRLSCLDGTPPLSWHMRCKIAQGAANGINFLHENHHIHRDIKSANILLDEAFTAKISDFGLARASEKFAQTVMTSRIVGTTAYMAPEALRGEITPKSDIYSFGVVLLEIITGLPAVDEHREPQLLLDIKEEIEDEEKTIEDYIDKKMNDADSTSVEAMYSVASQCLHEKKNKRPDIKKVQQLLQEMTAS

| Compound | IC50 [1] | IC50 [2] | IC50 ([1]; Homo sapiens, PBMC, 5 h) |
| --- | --- | --- | --- |
| CC(O)([C@H](F)CNC(=O)c1cnc(Nc2ccc3ncsc3c2)cc1N[C@@H]1CCC[C@H]1O)C(F)(F)F (stereo partly drawn) [Example 334] | 321 nM | 4.5 nM | – |
| O=C(NC[C@@H](F)CO)c1cnc(Nc2ccc3ncsc3c2)cc1NC1CCCC1O (stereo partly drawn) [Example 337] | – | 5.8 nM | 799 nM |
| CC(C)(O)[C@H](F)CNC(=O)c1cnc(Nc2ccc3nccnc3c2)cc1NC1CCCC1O (stereo partly drawn) [Example 338] | – | 17.1 nM | 493 nM |
| CC(C)(O)[C@H](F)CNC(=O)c1cnc(Nc2ccc3ncsc3c2)cc1N[C@@H]1CCCC1F (stereo partly drawn) [Example 343] | 114 nM | 3 nM | – |
| CC(C)(O)[C@H](F)CNC(=O)c1cnc(Nc2ccc3ncsc3c2)cc1N[C@@H]1CCCC1F (stereo partly drawn) [Example 344] | 38 nM | 1.8 nM | – |
| Cc1nc2cc(F)c(Nc3cc(NC4CCCC4F)c(C(=O)NC[C@@H](F)C(C)(C)O)cn3)cc2s1 (stereo partly drawn) [Example 347] | – | 3.2 nM | 327 nM |
| CC(C)(O)[C@H](F)CNC(=O)c1cnc(Nc2ccc3nccnc3c2)cc1NC1CCCC1F (stereo partly drawn) [Example 348] | – | 6.7 nM | 562 nM |
| Cc1nc2ccc(Nc3cc(NC4CCCC4F)c(C(=O)NC[C@@H](F)C(C)(C)O)cn3)cc2s1 (stereo partly drawn) [Example 349] | 475 nM | 8.6 nM | – |
| Cc1nc2ccc(Nc3cc(NC4CCCC4F)c(C(=O)NC[C@@H](F)C(C)(C)O)cn3)cc2s1 (stereo partly drawn) [Example 350] | 148 nM | 2.7 nM | – |
| CC(C)(O)[C@H](F)CNC(=O)c1cnc(Nc2ccc3ncccc3c2)cc1NC1CCCC1F (stereo partly drawn) [Example 351] | – | 5.9 nM | 227 nM |
| O=C(NC1CCC(O)CC1)c1cnc(Nc2ccc3ncsc3c2)cc1NC1CCCC1F (stereo not drawn) [Example 352] | 245 nM | 3.8 nM | – |
| O=C(NC1CCC(O)CC1)c1cnc(Nc2ccc3ncsc3c2)cc1NC1CCCC1F (stereo not drawn) [Example 353] | 112 nM | 2.9 nM | – |
| CC(C)(O)[C@H](F)CNC(=O)c1cnc(Nc2ccc3ncoc3c2)cc1N[C@@H]1CCCC1F (stereo partly drawn) [Example 354] | – | 4.4 nM | 402 nM |
| CC(C)(O)[C@H](F)CNC(=O)c1cnc(Nc2ccc3ncoc3c2)cc1N[C@@H]1CCCC1F (stereo partly drawn) [Example 355] | 236 nM | 2.2 nM | – |
| CC(C)(O)[C@H](F)CNC(=O)c1cnc(Nc2ccc3nonc3c2)cc1N[C@@H]1CCCC1F (stereo partly drawn) [Example 356] | – | 3 nM | 281 nM |
| CC(C)(O)[C@H](F)CNC(=O)c1cnc(Nc2ccc3nonc3c2)cc1N[C@@H]1CCCC1F (stereo partly drawn) [Example 357] | 399 nM | 7.2 nM | – |
| CC(C)(O)[C@H](F)CNC(=O)c1cnc(Nc2ccc3ncsc3c2)cc1NC1CCCC1(F)F (stereo partly drawn) [Example 358] | – | 2.4 nM | 48 nM |
| CC(C)(O)[C@H](F)CNC(=O)c1cnc(Nc2ccc3nccnc3c2)cc1NC1CCCC1(F)F (stereo partly drawn) [Example 359] | – | 4.6 nM | 188 nM |
| CC(C)(O)[C@H](F)CNC(=O)c1cnc(Nc2ccc3ncccc3c2)cc1NC1CCCC1(F)F (stereo partly drawn) [Example 360] | – | 2.8 nM | 73 nM |
| CC(C)(O)C(F)CNC(=O)c1cnc(Nc2ccc3ncsc3c2)cc1NC1CC(C(F)F)C1 (stereo not drawn) [Example 361, 4-(3-(difluoromethyl)cyclobutylamino)-6-(3a,27a-dihydrobenzo[d]thiazol-6-ylamino)-N-(2-fluoro-3-hydroxy-3-methylbutyl)nicotinamide] | 176 nM | 6.9 nM | – |
| CC(C)(O)[C@@H](F)CNC(=O)c1cnc(Nc2ccc3ncsc3c2)cc1NC1CC1 [Example 366, (S)-6-(benzo[d]thiazol-6-ylamino)-4-(cyclopropylamino)-N-(2-fluoro-3-hydroxy-3-methylbutyl)nicotinamide] | – | 9.3 nM | 734 nM |
| CC(C)Nc1cc(Nc2nc3ccnn3cc2F)ncc1C(=O)NC[C@@H](F)C(C)(C)O [Example 367, (R)—N-(2-fluoro-3-hydroxy-3-methylbutyl)-6-((6-fluoropyrazolo[1,5-a]pyrimidin-5-yl)amino)-4-(isopropylamino)nicotinamide] | – | 4.8 nM | 569 nM |
| CC(C)(O)[C@H](F)CNC(=O)c1cnc(Nc2nc3ccnn3cc2F)cc1NC1CC1 [Example 368] | 445 nM | 5.3 nM | – |
| CC(C)(O)[C@H](F)CNC(=O)c1cnc(Nc2nc3ccnn3cc2F)cc1NC1CCOCC1 [Example 369] | – | 8.1 nM | 859 nM |
| CC(C)(O)[C@H](F)CNC(=O)c1cnc(Nc2ncc3ncccc3n2)cc1NC1CCOCC1 [Example 371] | – | 6 nM | 604 nM |
| CC(C)(F)CNc1cc(Nc2ccc3ncc(C#N)cc3n2)ncc1C(=O)NC[C@@H](F)C(C)(C)O [Example 373] | – | 5.1 nM | 431 nM |
| CC(C)Nc1cc(Nc2ccc3ncc(Cl)cc3n2)ncc1C(=O)NC[C@@H](F)C(C)(C)O [Example 374] | – | 3.1 nM | 271 nM |

| Compound | IC50 [1] | IC50 [2] | IC50 ([1]; Homo sapiens, PBMC, 5 h) |
| --- | --- | --- | --- |
| CC(C)(O)[C@H](F)CNC(=O)c1cnc(Nc2ccc3ncsc3c2)cc1Nc1ccc(S(C)(=O)=O)cc1 [Example 382] | – | 6.3 nM | 491 nM |
| CC(C)(O)[C@H](F)CNC(=O)c1cnc(Nc2ccn3nccc3n2)cc1Nc1ccc(S(C)(=O)=O)cc1 [Example 383] | – | 6.3 nM | 194 nM |
| CC(C)(O)[C@H](F)CNC(=O)c1cnc(Nc2ccc3ncsc3c2)cc1NC1CCSCC1 [Example 384] | – | 3.5 nM | 180 nM |
| CC(C)(O)[C@H](F)CNC(=O)c1cnc(Nc2ccn3nccc3n2)cc1NC1CCSCC1 [Example 385] | – | 4.3 nM | 135 nM |
| CC(C)(O)[C@H](F)CNC(=O)c1cnc(Nc2ccn3nccc3n2)cc1NCC(F)F [Example 386] | – | 20.1 nM | 516 nM |
| CCC(C)Nc1cc(Nc2ccn3nccc3n2)ncc1C(=O)NC[C@@H](F)C(C)(C)O (stereo partly drawn) [Example 387] | – | 4.3 nM | 293 nM |
| CCC(C)Nc1cc(Nc2ccn3nccc3n2)ncc1C(=O)NC[C@@H](F)C(C)(C)O (stereo partly drawn) [Example 388] | 234 nM | 6.6 nM | – |
| CCC(O)(CC)[C@H](F)CNC(=O)c1cnc(Nc2ccn3nccc3n2)cc1NCC(C)(C)F [Example 389] | – | 10.4 nM | 574 nM |
| CC(C)(O)[C@H](F)CNC(=O)c1cnc(Nc2nc3ccnn3cc2F)cc1NC1CCC(F)(F)C1 (stereo partly drawn) [Example 391] | 119 nM | 2.5 nM | – |
| CC(C)(O)[C@H](F)CNC(=O)c1cnc(Nc2nc3ccnn3cc2F)cc1NC1CCC(F)(F)C1 (stereo partly drawn) [Example 392] | 297 nM | 8 nM | – |
| CC(C)(O)[C@H](F)CNC(=O)c1cnc(Nc2ccc3ncsc3c2)cc1NC12CCC(NC(=O)c3ccccc3)(CC1)C2 [Example 394] | – | 10.2 nM | 311 nM |
| CC(C)(O)[C@H](F)CNC(=O)c1cnc(Nc2ccc3ncsc3c2)cc1NC12CCC(NC(=O)c3cccnc3)(CC1)C2 [Example 395] | – | 4.4 nM | 333 nM |
| CC(C)(O)[C@H](F)CNC(=O)c1cnc(Nc2ccc3ncsc3c2)cc1NC12CCC(NS(C)(=O)=O)(CC1)C2 [Example 396] | – | 2.7 nM | 351 nM |
| CCOC(=O)NC12CCC(Nc3cc(Nc4ccc5ncsc5c4)ncc3C(=O)NC[C@@H](F)C(C)(C)O)(CC1)C2 [Example 397] | – | 4.9 nM | 197 nM |
| CN(C)CC(=O)NC12CCC(Nc3cc(Nc4ccc5ncsc5c4)ncc3C(=O)NC[C@@H](F)C(C)(C)O)(CC1)C2 [Example 398] | – | 3.5 nM | 301 nM |
| CC(C)(O)[C@H](F)CNC(=O)c1cnc(Nc2ccc3ncsc3c2)cc1NC12CCC(NC(=O)c3ccncc3)(CC1)C2 [Example 399] | – | 3.1 nM | 203 nM |
| CC(C)(O)[C@H](F)CNC(=O)c1cnc(Nc2ccc3ncsc3c2)cc1NC12CCC(NC(=O)c3ccccn3)(CC1)C2 [Example 400] | – | 7.5 nM | 119 nM |
| CC(C)(O)[C@H](F)CNC(=O)c1cnc(Nc2ccc3ncsc3c2)cc1NC12CCC(NS(=O)(=O)c3ccccc3)(CC1)C2 [Example 401] | – | 12.6 nM | 328 nM |
| CC(C)Nc1cc(Nc2ccc3ncsc3c2)ncc1C(=O)NCCN1CCOCC1 [Example 402] | – | 9 nM | 357 nM |
| CCC(O)(CC)[C@H](F)CNC(=O)c1cnc(Nc2cc3scnc3cn2)cc1NC1CC1 [Example 403] | – | 21 nM | 1480 nM |
| CC(C)(O)[C@H](F)CNC(=O)c1cnc(Nc2ccc3ncccc3n2)cc1NC1CCCC1F (stereo partly drawn) [Example 404] | – | 7.8 nM | 1010 nM |
| CC(C)(O)[C@H](F)CNC(=O)c1cnc(Nc2ccc3ncccc3n2)cc1NC1CCCC1F (stereo partly drawn) [Example 405] | 788 nM | 5.8 nM | – |
| CC(C)(O)[C@H](F)CNC(=O)c1cnc(Nc2ccc3ncc(C#N)cc3n2)cc1NC1CCC(F)(F)C1 (stereo partly drawn) [Example 406] | 1320 nM | 11.8 nM | – |
| CC(C)(O)[C@H](F)CNC(=O)c1cnc(Nc2ccc3ncc(C#N)cc3n2)cc1NC1CCC(F)(F)C1 (stereo partly drawn) [Example 407] | 260 nM | 2.7 nM | – |
| CC(C)(O)[C@H](F)CNC(=O)c1cnc(Nc2nc3ccnn3cc2F)cc1NC1CCC(F)C1 (stereo partly drawn) [Example 408] | 209 nM | 1.9 nM | – |
| CC(C)(O)[C@H](F)CNC(=O)c1cnc(Nc2nc3ccnn3cc2F)cc1NC1CCC(F)C1 (stereo partly drawn) [Example 409] | 207 nM | 3 nM | – |
| CC(C)(O)[C@H](F)CNC(=O)c1cnc(Nc2nc3ccnn3cc2F)cc1NC1CCC(F)C1 (stereo partly drawn) [Example 410] | 340 nM | 3.2 nM | – |
